From US20230095498A1, “NOVEL COMPOUND AND USE THEREOF” (THE CATHOLIC UNIVERSITY OF KOREA INDUSTRY-ACADEMIC …, priority 2020, published 2023)

Assays:
[1] = test system: HK-1 cells; experiment: Tac-induced apoptosis analysis with PI and Annexin-V; assay type: cell-based, human; conditions: Tac combined with SD911 (10 μM), compared to Tac alone
Description: In HK-1 cells, the effect of SD911 on ROS production inhibitory ability and apoptosis reduction was identified. Based on the cell viability test results of Example 2 (FIG. 2), inhibitory effects of SD911 on ROS production were investigated at 1, 5, and 10 μM of SD911.

[2] = test system: immunodeficient mice (NSG) injected with transplantation rejection patient PBMCs; experiment: Transplantation rejection patient imitation avatar (humanized NSG mouse) model, immunosuppressant effect; assay type: in vivo; conditions: group injected with transplantation rejection patient PBMCs
Excerpt: In order to produce the transplantation rejection avatar animal model of an embodiment of the present invention, PBMCs (peripheral blood mononuclear cells) derived from normal or transplantation rejection patients were intravascularly injected into 8 to 10 week old immunodeficient mice (NSG) at 5×10^6/mice. After 3 weeks, the engraftment of normal or transplantation rejection patients (kidney transplantation rejection patients) cells in the blood was identified in blood cells. Thereafter, the mice were sacrificed 4 weeks after cell transplantation to identify the infiltration of human cells and histological changes in the tissue (FIG. 8).
In order to identify that the transplantation rejection patient imitation avatar model in Example 8 above was properly constructed, engraftment of human cells was analyzed through flow cytometry. Specifically, blood was obtained from the transplantation rejection humanized mice of Example 1 (normal PBMC injection group, HC; transplantation rejection patient PBMC injection group, Patient), and then cells that were positive in reaction with human antibodies were analyzed. In addition, blood […] (SCR) concentration was measured as an index for measuring kidney damage in PBMC-injected mice of normal subjects and transplantation rejection patients. SCR was measured by the quantitative enzymatic colorimetric method (Stanbio laboratory, 0430-120) by isolating serum in animal blood.
Specifically, the transplantation rejection humanized mouse model established in Example 8 above was classified as 1) a normal PBMC injection group, 2) a normal PBMC injection group treated with an immunosuppressant, 3) a transplantation rejection patient PBMC injection group, and 4) a transplantation rejection patient PBMC injection group treated with an immunosuppressant. SD911 was used as the immunosuppressant. Specifically, the animal model of Example 8 above was treated with SD911 at 3 weeks after engraftment of PBMCs. and the same amount of physiological saline was treated as a control group. […]

[3] = test system: HK-2 cells; experiment: Reactive oxygen species (ROS) measurement by DCF-DA flow cytometry in HK-2 cells; assay type: cell-based, human
Description: After 80% seeding of HK-2 cells, 24 hours later, tacrolimus was treated at a concentration of 60 to 70 μg/ml and SD911 was treated at a concentration of 1 to 20 μM and reacted for 3 to 12 hours, and then 10 μM of DCF-DA (Molecular probes, Carlebad, Calif., USA) was reacted at 37° C. for 1 hour. Then, cells were harvested and analyzed with 0.05% Trypsin and 0.53 mM EDTA. For analysis, aggregated or broken cells were removed using FSC (forward side scatter) and SSC (side scatter) scatter plots (dot plot) using a FACS Calibur (BD bioscience, San Jose, Calif., USA), and the fluorescence fraction was analyzed in the FL-1H channel (Excitation 488 nm, Emission 513 to 535 nm). Based on the cell viability identification results of Example 1, the ROS production inhibitory effect on 1, 5, and 10 μM of SD911 was investigated. […] In […] cells, the effect of SD911 on ROS production inhibitory ability and apoptosis reduction was identified. Based on the cell viability test results of Example 2 (FIG. 2), inhibitory effects of SD911 on ROS production were investigated at 1, 5, and 10 μM of SD911.

[4] = target: T1, S1P (Sphingosine 1-phosphate) lyase (Mus musculus, UniProt Q8R0X7); experiment: S1P lyase (SPL) activity in liver lysate, HPLC; assay type: biochemical; conditions: 5 uM inhibitor, 37° C. for 1 hour
T1 construct: After homogenizing the liver tissue of an experimental animal in a lysis buffer; from tissue; host or cells: liver tissue homogenate of an experimental animal
T1 sequence (Q8R0X7 1-568): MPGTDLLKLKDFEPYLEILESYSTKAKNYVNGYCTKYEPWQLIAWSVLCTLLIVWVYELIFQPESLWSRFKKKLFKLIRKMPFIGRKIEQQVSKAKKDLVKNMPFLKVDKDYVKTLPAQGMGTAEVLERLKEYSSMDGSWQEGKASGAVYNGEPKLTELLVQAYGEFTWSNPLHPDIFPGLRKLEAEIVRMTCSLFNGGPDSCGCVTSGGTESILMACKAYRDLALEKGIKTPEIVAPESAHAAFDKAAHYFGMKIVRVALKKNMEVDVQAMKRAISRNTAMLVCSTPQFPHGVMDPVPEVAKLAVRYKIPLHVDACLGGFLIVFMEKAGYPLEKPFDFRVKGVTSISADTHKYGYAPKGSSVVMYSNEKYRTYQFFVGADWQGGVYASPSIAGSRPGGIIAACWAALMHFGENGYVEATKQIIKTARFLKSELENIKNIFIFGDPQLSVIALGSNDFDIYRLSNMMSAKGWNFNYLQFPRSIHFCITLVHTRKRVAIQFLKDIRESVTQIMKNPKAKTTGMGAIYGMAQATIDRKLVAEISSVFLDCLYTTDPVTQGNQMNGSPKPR
Description: After homogenizing the liver tissue of an experimental animal in a lysis buffer, protein quantification was performed to secure the concentration, and a mixed solution was prepared under the conditions shown in Table 1 below and reacted at 37° C. for 1 hour.

[5] = test system: HK-2 cells; experiment: Cell viability (CCK-8) in HK-2 cells under cytotoxicity induction by tacrolimus; assay type: cell-based, human; conditions: for survival rate: Nil = 100%
Description: The human kidney-2 cell line used in this experiment was purchased from ATCC (Manassas, Va., USA) and used. These cells were cultured in Dulbecco's modified Eagle's medium (DMEM; Wisent) containing 10% fetal bovine serum (FBS; Wisent, St. Bruno, Que, Canada), 100 U/mL penicillin, and […] streptomycin (Wisent) in 5% CO2, 37° C. incubator. After 80% seeding of HK-2 cells, 24 hours later, tacrolimus was treated at a concentration of 60 to 70 μg/ml and SD911 was treated at a concentration of 1 to 20 μM and reacted for 3 to 12 hours. In the case of cells isolated as a single cell from mouse spleen tissue, after seeding 2×10^5/cell/200 μl in a 96-well plate in triplicate, each SD911 compound was treated with 1 to 20 μM and reacted for 3 days. Thereafter, the cell counting kit-8 (CCK-8, Dojindo molecular, Rockville, Mass., USA) reagent was treated for 2 hours, and then measured and analyzed at absorbance of 450 nm. The cytoprotective effect of an SD911 compound was investigated under HK-2 cytotoxicity induction by tacrolimus (Tac).

[6] = test system: mouse splenocytes; experiment: Toxicity test (CCK-8) on mouse splenocytes; assay type: cell-based; conditions: SD911 1, 5, 20 μM, 3 days
Description: After 80% seeding of HK-2 cells, 24 hours later, tacrolimus was treated at a concentration of 60 to 70 μg/ml and SD911 was treated at a concentration of 1 to 20 μM and reacted for 3 to 12 hours. In the case of cells isolated as a single cell from mouse spleen tissue, after seeding 2×10^5/cell/200 μl in a 96-well plate in triplicate, each SD911 compound was treated with 1 to 20 μM and reacted for 3 days. Thereafter, the cell counting kit-8 (CCK-8, Dojindo molecular, Rockville, Mass., USA) reagent was treated for 2 hours, and then measured and analyzed at absorbance of 450 nm.

[7] = test system: IL-10; experiment: IL-10 ELISA of cell culture medium under anti-CD3 immune activity; assay type: cell-based, mouse; conditions: anti-CD3 stimulation, 3 days, compared to group not treated with SD911
Description: (§1) Cell culture for ELISA was coated with 250 ul of mouse anti-CD3 antibody diluted in ccPBS with 0.5 μg/ml in a 24-well plate as many as the number of conditions. After incubation for 2 hours, the supernatant was removed and the cells were seeded at 1×10^6/cells/1 ml and then treated with each drug. After culturing for 3 days, only the cell culture medium was removed and used as IL-10 and IL-17 ELISA samples.

[8] = test system: IL-17; experiment: IL-17 ELISA of cell culture medium under anti-CD3 immune activity; assay type: cell-based, mouse; conditions: anti-CD3 stimulation, 3 days, compared to group not treated with SD911
Description: as §1

| reduction of S1P lyase activity compared to the control [4] | Structure (SMILES) | ratio of necrotic cells, apoptotic cells, and early apoptotic cells & necrotic cells [1] | damage to kidney tissue (GN score, IN score, Vasculitis) ([2]; SD911 at 3 weeks after engraftment, sacrifice 1 week later) | infiltration of IL-17 positive cells in kidney tissue ([2]; immunohistochemical staining) | infiltration of human CD4-positive cells in kidney tissue ([2]; immunohistochemical staining) | ROS (DCF-DA fluorescence fraction) ([3]; 1 μM SD911 combined with tacrolimus) | ROS (DCF-DA fluorescence fraction) ([3]; 5 μM SD911 combined with tacrolimus) | ROS (DCF-DA fluorescence fraction) ([3]; 10 μM SD911 combined with tacrolimus) | fluorescence fraction of DCF-DA (ROS) ([3]; SD911 alone at 1, 5 and 10 μM, compared to Nil) | survival rate ([5]; 1 μM SD911 in combination with tacrolimus) | survival rate ([5]; 5 μM SD911 in combination with tacrolimus) | survival rate ([5]; 10 μM SD911 in combination with tacrolimus) | survival rate ([5]; 20 μM SD911 in combination with tacrolimus) | own drug toxicity (cell viability compared to Nil) ([5]; SD911 alone at 1, 5, 10 and 20 μM) | toxicity on immune cells (cell viability vs Nil group) [6] | IL-10 level (ELISA) [7] | IL-17 level (ELISA) [8] | ROS (DCF-DA fluorescence fraction) ([3]; tacrolimus (Tac) alone, induction of HK-2 cytotoxicity) | survival rate ([5]; tacrolimus (Tac) alone) |
| --- | --- | --- | --- | --- | --- | --- | --- | --- | --- | --- | --- | --- | --- | --- | --- | --- | --- | --- | --- |
| about 30% | C[C@@H]1CN(c2nnc(Oc3ccccc3)c3ccccc23)CCN1c1ccc(C#N)cn1 [SD911, 6-((R)-2-methyl-4-(1-phenoxyphthalazin-4-yl)piperazin-1-yl)pyridine-3-carbonitrile] | significantly alleviated compared to Tac alone | the damage to the kidney tissue was reduced | significantly reduced | significantly reduced | 36.5% | 13.7% | 9.3% | almost no difference from that of Nil | 81.7% | 81.8% | 72.0% | 37.4% | did not have its own drug toxicity | no significant difference compared to the Nil group | increased IL-10 in a concentration-dependent manner | decreased IL-17 |  |  |
|  | C=CC[C@@H]1/C=C(\C)C[C@H](C)C[C@H](OC)[C@H]2O[C@@](O)(C(=O)C(=O)N3CCCC[C@H]3C(=O)O[C@H](/C(C)=C/[C@@H]3CC[C@@H](O)[C@H](OC)C3)[C@H](C)[C@@H](O)CC1=O)[C@H](C)C[C@@H]2OC [tacrolimus, reference compound] |  |  |  |  |  |  |  |  |  |  |  |  |  |  |  |  | 31.6% | 56.7% |
